“Also recorded” adds a separate entry of the source. Ends that are not written are not given here.

For one assay, the system named is indicator strains. Kind of assay: Deferred antagonism assays, various indicator strains (summary). The assay is classed as cell-based. Conditions: for Target strain against which the hinge mutant was selected for enhanced bioactivity: XX and XXX banks, L. lactis HP*: enhanced or equal; for Target strain against which the hinge mutant was selected for enhanced bioactivity / Strain(s) against which the derivative (producing strain) displays enhanced bioactivity: relative to nisin A-producing control; for number of targets with enhanced activity: of the 8 additional targets tested; for Strain(s) against which the derivative (producing strain) displays enhanced bioactivity: value = strains listed. The procedure: (§1) Deferred antagonism assays were performed by replicating strains on GM17 or GM17 x-gal agar plates and allowing them to grow overnight before overlaying with either GM17/BHI/TS/MH agar (0.75% w/v agar) seeded with the appropriate indicator strain. Zone size was calculated as the diameter of the zone of clearing minus the diameter of bacterial growth (5 mm) For higher throughput screening of N20PXX, XM21VX, XXK22T and XXX banks deferred antagonism assays were performed by replicating strains using a 96 pin replicator (Boekel) or spotting 5 μl of a fresh overnight culture on GM17 agar plates and allowing them to grow overnight. […] Additional sets of indicators were employed to further assess/reassess the bioactivity of a number of strains. […] For well-diffusion assays molten agar was cooled to 48° C. and seeded with the appropriate indicator strain. The inoculated medium was rapidly transferred into sterile Petri plates in 50 ml volumes, allowed to solidify and dried. Wells (4.6 mm in diameter) were then made in the seeded plates. Purified nisin and mutant nisins were resuspended in 0.005% acetic acid, serially diluted, 50 μl volumes were dispensed into the aforementioned wells and the plates incubated at 37° C. overnight. Bioactivity was expressed as arbitrary units/ml (AU/ml) and calculated as the reciprocal of the highest dilution that gave a definite zone multiplied by the conversion factor (i.e. 20 when 50 μl was used) (Ryan et al., 1996).

For another assay, the system named is S. aureus CBC4. As to the kind of experiment: Deferred antagonism assay. It counts as cell-based. Set-up: key: + = Enhanced bioactivity relative to control; − = Bioactivity equal to or less than control; NA = no activity evident. The conditions noted are these: XX and XXX hinge mutant producers. The procedure: as §1
(§2) As a consequence of the enhanced activities of K22T and K22S, a more in-depth investigation of this region was carried out. Saturation mutagenesis was undertaken to create a bank of nisin A hinge derivatives containing the vast majority of possible amino acid substitutions for each position. Although pPTPL was used successfully for random mutagenesis, its relatively large size of approx 10.5 kb was considered unsuitable for the complete plasmid PCR amplification approach utilized for saturation mutagenesis. A smaller (approx 6 kb) E. coli-L. lactis shuttle vector pCI372 was considered to be potentially more useful. Its suitability with respect to the in trans expression of nisA was confirmed by the ability of pDFO5 to restore the nisin positive phenotype. Saturation mutagenesis was performed on each codon using pDF05 and oligonucleotides (Table 5) that replace the specific codon with a NNK triplet, potentially encoding all 20 standard amino acids. Following complete plasmid amplification and introduction into the intermediate Top10 host, sequence analysis of a pooled bank of pDF05 derivatives confirmed randomization. Introduction of these variants into L. lactis NZ9800 allowed the expression of mutant nisin A peptides for further analysis. […] 46 residue conversions were isolated. All strains, regardless of bioactivity, were assessed with a view to comprehensively assessing the consequences of each individual hinge alteration.

The next assay has as its system L. lactis CBC8. As to the kind of experiment: Deferred antagonism assay. The assay is classed as cell-based. Set-up: key: + = Enhanced bioactivity relative to control; − = Bioactivity equal to or less than control; NA = no activity evident. The conditions noted are these: XX and XXX hinge mutant producers. How it is done:
as §1, §2

The next assay has as its system L. lactis CBC7. As to the kind of experiment: Deferred antagonism assay. The assay is classed as cell-based. Further details: key: + = Enhanced bioactivity relative to control; − = Bioactivity equal to or less than control; NA = no activity evident. Conditions: XX and XXX hinge mutant producers. How it is done:
as §1, §2

A further assay relates to L. plantarum CBC6. As to the kind of experiment: Deferred antagonism assay. It counts as cell-based, Lactobacillus plantarum. Set-up: key: + = Enhanced bioactivity relative to control; − = Bioactivity equal to or less than control; NA = no activity evident. Conditions: XX and XXX hinge mutant producers. The procedure:
as §1, §2

A further assay concerns L. monocytogenes CBC3. As to the kind of experiment: Deferred antagonism assay. It counts as cell-based, Listeria monocytogenes. Set-up: key: + = Enhanced bioactivity relative to control; − = Bioactivity equal to or less than control; NA = no activity evident. The conditions noted are these: L. mono CBC3; XX and XXX hinge mutant producers. The procedure:
as §1, §2

For another assay, the system named is L. monocytogenes CBC1. As to the kind of experiment: Deferred antagonism assay. It counts as cell-based, Listeria monocytogenes. Set-up: key: + = Enhanced bioactivity relative to control; − = Bioactivity equal to or less than control; NA = no activity evident. The conditions noted are these: L. mono CBC1; XX and XXX hinge mutant producers. How it is done: as §1, §2

In the next assay the test system is L. monocytogenes CBC2. Kind of assay: Deferred antagonism assay. The assay is classed as cell-based, Listeria monocytogenes. Set-up: key: + = Enhanced bioactivity relative to control; − = Bioactivity equal to or less than control; NA = no activity evident. The conditions noted are these: L. mono CBC2; XX and XXX hinge mutant producers. The procedure:
as §1, §2

In the case of “NisinA HLT (ITSISLCTPGCKTGALMGCHLTTATCHCSIHVSK; cysteine pairing not given here; also: lantibiotic nisin-A; UniProt P13068 24-57, looked up, variant N20H M21L K22T) [nisin A hinge variant HLT (i.e. N20H, M21L, K22T)]”, the “Target strain against which the hinge mutant was selected for enhanced bioactivity” value in the assay on indicator strains is “Strep. agalactiae ATCC 13813”. Also, in the assay on indicator strains, the “number of targets with enhanced activity” value was found to be 4. The “Strain(s) against which the derivative (producing strain) displays enhanced bioactivity” value (from here on “Strain(s) against which the derivative”) in the assay with indicator strains is “S. agalactiae ATCC13813, L. monocytogenes CBC2 and CBC3, S. aureus CBC4 and L. lactis CBC7; also recorded: S. agalactiae ATCC13813, L. mono CBC2, CBC3, S. aureus”. Moreover, the “bioactivity relative to a nisin A-producing control” value with S. aureus CBC4 was “+”; in the assay on L. lactis CBC8 it was “−”; in the assay with L. lactis CBC7, “+”; in the assay on L. plantarum CBC6 it was “−”; in the assay with L. monocytogenes CBC3, “+”; with L. monocytogenes CBC1 it was “−”. For the same substance, the “bioactivity relative to a nisin A-producing control” value in the assay with L. monocytogenes CBC2 is listed as “+”.

With NisinA PAA, the “Target strain against which the hinge mutant was selected for enhanced bioactivity” value in the assay on indicator strains is on record as “C. sporogenes UCC1”. Further, the “Strain(s) against which the derivative” value with indicator strains was “C. sporogenes UCC1 and S. aureus CBC4”. The “bioactivity relative to a nisin A-producing control” value with S. aureus CBC4 is listed as “+”; with L. lactis CBC8 it was “−”; with L. lactis CBC7 it was “−”; with L. plantarum CBC6, “−”; in the assay on L. monocytogenes CBC3 it was “−”; in the assay with L. monocytogenes CBC1, “−”. In addition, the “bioactivity relative to a nisin A-producing control” value in the assay with L. monocytogenes CBC2 is on record as “−”.

With NisinA PAK, the “Target strain against which the hinge mutant was selected for enhanced bioactivity” value with indicator strains is “Staph. aureus RF122/L. lactis HP*”. Besides, in the assay on indicator strains (of the 16 strains tested), the “number of strains with bioactivity” value was determined as 7. Moreover, the “Strain(s) against which the derivative” value with indicator strains was “S. aureus RF122 , CBC4 , NCDO1499 and DPC5246, L. lactis MG1363 , and L. monocytogenes 10403S and EGDe; also recorded: DPC5246, NCDO1499, L. mono 10403S and EGDe”. In addition, the “bioactivity relative to a nisin A-producing control” value in the assay with S. aureus CBC4 was “+”; with L. lactis CBC8 it was “−”; in the assay on L. lactis CBC7 it was “−”; in the assay with L. plantarum CBC6, “−”; in the assay on L. monocytogenes CBC3 it was “−”; with L. monocytogenes CBC1, “−”. Besides, the “bioactivity relative to a nisin A-producing control” value with L. monocytogenes CBC2 is “−”.

With “NisinA PAL (ITSISLCTPGCKTGALMGCPALTATCHCSIHVSK; not fully specified (bridges); also: lantibiotic nisin-A: lanthionine rings and dehydrated residues, places not given here; UniProt P13068 24-57, looked up, variant N20P M21A K22L) [nisin A hinge variant PAL (i.e. N20P, M21A, K22L)]”, in the assay on indicator strains, the “Target strain against which the hinge mutant was selected for enhanced bioactivity” value was “C. sporogenes UCC1”. Moreover, the “number of targets with enhanced activity” value in the assay with indicator strains came to 4. Further, in the assay with indicator strains, the “Strain(s) against which the derivative” value was “C. sporogenes UCC1, S. aureus CBC4, L. lactis CBC7 and CBC8, L. monocytogenes CBC2 and an additional 10 L. monocytogenes and 2 L. innocua; also recorded: C. sporogenes UCC1, L. mono CBC2, S. aureus CBC4, L. lactis”. Besides, the “bioactivity relative to a nisin A-producing control” value in the assay with S. aureus CBC4 is reported as “+”; with L. lactis CBC8 it was “+”; with L. lactis CBC7, “+”; with L. plantarum CBC6 it was “−”; in the assay on L. monocytogenes CBC3, “−”; with L. monocytogenes CBC1, “−”. Moreover, the “bioactivity relative to a nisin A-producing control” value in the assay with L. monocytogenes CBC2 is recorded as “+”.

In the case of “NisinA PAT (ITSISLCTPGCKTGALMGCPATTATCHCSIHVSK; not fully specified (bridges); also: lantibiotic nisin-A: lanthionine rings and dehydrated residues, places not given here; UniProt P13068 24-57, looked up, variant N20P M21A K22T) [nisin A hinge variant PAT (i.e. N20P, M21A, K22T)]”, in the assay with indicator strains, the “Target strain against which the hinge mutant was selected for enhanced bioactivity” value is on record as “Strep. agalactiae ATCC 13813”. Moreover, in the assay on indicator strains, the “Strain(s) against which the derivative” value is “S. agalactiae ATCC13813”. Moreover, the “bioactivity relative to a nisin A-producing control” value in the assay on S. aureus CBC4, in the assay on L. lactis CBC8, in the assay with L. lactis CBC7, in the assay on L. plantarum CBC6, in the assay with L. monocytogenes CBC3 and in the assay with L. monocytogenes CBC1 was “−” in each case. For the same substance, in the assay with L. monocytogenes CBC2, the “bioactivity relative to a nisin A-producing control” value is “−”.

As for NisinA PIA, the “Target strain against which the hinge mutant was selected for enhanced bioactivity” value with indicator strains is reported as “Staph. aureus RF122”. Moreover, the “Strain(s) against which the derivative” value in the assay with indicator strains is “B. cereus UCC1”. Besides, the “bioactivity relative to a nisin A-producing control” value in the assay on S. aureus CBC4, with L. lactis CBC8, in the assay with L. lactis CBC7, in the assay with L. plantarum CBC6, in the assay on L. monocytogenes CBC3 and in the assay on L. monocytogenes CBC1 was “−” each time. In addition, the “bioactivity relative to a nisin A-producing control” value in the assay with L. monocytogenes CBC2 is on record as “−”.

With NisinA PIM, the “Target strain against which the hinge mutant was selected for enhanced bioactivity” value in the assay with indicator strains was “Staph. aureus RF122”. Further, the “Strain(s) against which the derivative” value in the assay with indicator strains is “B. cereus UCC1”. Also, the “bioactivity relative to a nisin A-producing control” value with S. aureus CBC4, in the assay with L. lactis CBC8, in the assay with L. lactis CBC7, in the assay on L. plantarum CBC6, in the assay on L. monocytogenes CBC3 and in the assay on L. monocytogenes CBC1 was “−” throughout. Besides, the “bioactivity relative to a nisin A-producing control” value in the assay with L. monocytogenes CBC2 is reported as “−”.

As to “NisinA PLA (ITSISLCTPGCKTGALMGCPLATATCHCSIHVSK; not fully specified (bridges); also: lantibiotic nisin-A: lanthionine rings and dehydrated residues, places not given here; UniProt P13068 24-57, looked up, variant N20P M21L K22A) [nisin A hinge variant PLA (i.e. N20P, M21L, K22A)]”, the “Target strain against which the hinge mutant was selected for enhanced bioactivity” value with indicator strains is reported as “B. cereus UCC1”. For the same substance, the “Strain(s) against which the derivative” value with indicator strains is “B. cereus UCC1 and S. aureus CBC4”. Besides, the “bioactivity relative to a nisin A-producing control” value in the assay on S. aureus CBC4 was “+”; with L. lactis CBC8, “−”; in the assay on L. lactis CBC7, “−”; with L. plantarum CBC6, “−”; in the assay with L. monocytogenes CBC3, “−”; in the assay on L. monocytogenes CBC1 it was “−”. In the assay with L. monocytogenes CBC2, the “bioactivity relative to a nisin A-producing control” value is recorded as “−”.

The values above are taken from patent US8987193B2, “Nisin derivatives and the use thereof” (University College Cork—National University of Ireland, Cork, priority 2008, dated 2015).
